In patent US8624040B2, “Substituted hydroxamic acids and uses thereof” (Millennium Pharmaceuticals, Inc., priority 2009, dated 2014):

Molecular target: T1, purified human HDAC6 (Homo sapiens, UniProt Q9UBN7)
T1 construct: purchased BPS Bioscience 5006
T1 sequence (Q9UBN7 1-1215): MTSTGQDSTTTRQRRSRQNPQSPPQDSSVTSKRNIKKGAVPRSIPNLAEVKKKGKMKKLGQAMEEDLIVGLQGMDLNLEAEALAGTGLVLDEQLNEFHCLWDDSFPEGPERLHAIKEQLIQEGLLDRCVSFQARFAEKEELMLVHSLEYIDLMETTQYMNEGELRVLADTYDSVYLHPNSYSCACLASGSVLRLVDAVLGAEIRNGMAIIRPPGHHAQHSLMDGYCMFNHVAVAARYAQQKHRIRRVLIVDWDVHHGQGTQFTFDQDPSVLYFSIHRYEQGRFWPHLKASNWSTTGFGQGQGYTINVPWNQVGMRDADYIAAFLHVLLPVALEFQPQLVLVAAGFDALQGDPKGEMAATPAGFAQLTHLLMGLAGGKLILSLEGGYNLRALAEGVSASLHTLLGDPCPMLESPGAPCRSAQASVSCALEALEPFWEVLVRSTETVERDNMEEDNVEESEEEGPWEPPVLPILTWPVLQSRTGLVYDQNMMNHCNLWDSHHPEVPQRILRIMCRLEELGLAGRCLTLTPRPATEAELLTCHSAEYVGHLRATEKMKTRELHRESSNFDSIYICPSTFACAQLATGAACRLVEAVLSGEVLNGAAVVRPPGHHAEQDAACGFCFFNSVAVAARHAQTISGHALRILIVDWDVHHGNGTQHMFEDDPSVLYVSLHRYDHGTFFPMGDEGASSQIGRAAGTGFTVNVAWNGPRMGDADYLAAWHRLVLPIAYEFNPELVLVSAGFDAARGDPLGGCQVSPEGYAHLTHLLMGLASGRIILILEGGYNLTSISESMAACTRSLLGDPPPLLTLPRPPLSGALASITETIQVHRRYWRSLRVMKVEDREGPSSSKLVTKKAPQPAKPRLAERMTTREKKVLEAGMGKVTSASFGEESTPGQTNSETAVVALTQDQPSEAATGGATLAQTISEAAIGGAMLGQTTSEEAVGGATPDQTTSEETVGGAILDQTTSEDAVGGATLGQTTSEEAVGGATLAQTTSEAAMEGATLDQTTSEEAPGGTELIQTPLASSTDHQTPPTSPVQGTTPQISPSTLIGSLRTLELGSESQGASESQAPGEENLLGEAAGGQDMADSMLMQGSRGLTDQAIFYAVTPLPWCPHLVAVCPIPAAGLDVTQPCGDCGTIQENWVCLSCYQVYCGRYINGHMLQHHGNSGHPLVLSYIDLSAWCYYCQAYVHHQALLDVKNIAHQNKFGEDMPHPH
Test: HDAC6 Enzyme Assay
Format: biochemical
Details: enzyme inhibition, substrate Ac-Arg-Gly-Lys(Ac)-AMC, 1 hour at 30° C.
Protocol: To measure the inhibition of HDAC6 activity, purified human HDAC6 (BPS Bioscience; Cat. No. 5006) is incubated with substrate Ac-Arg-Gly-Lys(Ac)-AMC peptide (Bachem Biosciences; Cat. No. I-1925) for 1 hour at 30° C. in the presence of test compounds or vehicle DMSO control. The reaction is stopped with the HDAC inhibitor trichostatin A (Sigma; Cat. No. T8552) and the amount of Arg-Gly-Lys-AMC generated is quantitated by digestion with trypsin (Sigma; Cat. No. T1426) and subsequent measurement of the amount of AMC released using a fluorescent plate reader (Pherastar; BMG Technologies) set at Ex 340 nm and Em 460 nm. Concentration response curves are generated by calculating the fluorescence increase in test compound-treated samples relative to DMSO-treated controls, and enzyme inhibition (IC50) values are determined from those curves.

Row | Compound | IC50
1 | O=C(NO)c1cc2c(s1)CCN(C(=O)c1cccc3cccnc13)C2 [Compound 30, N-hydroxy-5-(quinolin-8-ylcarbonyl)-4,5,6,7-tetrahydrothieno[3,2-c]pyridine-2-carboxamide] | < 50 nM
2 | O=C(NO)c1cc2c(s1)CCN(C(=O)C1CCCCC1)C2 [Compound 31, 5-(cyclohexanecarbonyl)-N-hydroxy-4,5,6,7-tetrahydrothieno[3,2-c]pyridine-2-carboxamide] | < 50 nM
3 | COc1cc(OC)nc(-c2ccc(C(=O)N3CCc4sc(C(=O)NO)cc4C3)cc2)n1 [Compound 32, 5-(4-(4,6-dimethoxypyrimidin-2-yl)benzoyl)-N-hydroxy-4,5,6,7-tetrahydrothieno[3,2-c]pyridine-2-carboxamide] | < 50 nM
4 | O=C(NO)c1cc2c(s1)CCN(C(=O)C13CC4CC(CC(C4)C1)C3)C2 [Compound 33, 5-(adamantan-1-ylcarbonyl)-N-hydroxy-4,5,6,7-tetrahydrothieno[3,2-c]pyridine-2-carboxamide] | < 50 nM
5 | O=C(NO)c1cc2c(s1)CCN(S(=O)(=O)c1ccc(C(F)(F)F)cc1)C2 [Compound 34, N-hydroxy-5-{[4-(trifluoromethyl)phenyl]sulfonyl}-4,5,6,7-tetrahydrothieno[3,2-c]pyridine-2-carboxamide] | < 50 nM
6 | O=C(NO)c1cc2c(s1)CN(C(=O)Nc1ccc(-c3ccccc3)s1)CC2 [Compound 40, N^2-hydroxy-N^6-(5-phenyl-2-thienyl)-4,7-dihydrothieno[2,3-c]pyridine-2,6(5H)-dicarboxamide] | < 50 nM
7 | O=C(NO)c1cc2c(s1)CN(C(=O)c1ccco1)CC2 [Compound 42, 6-(furan-2-carbonyl)-N-hydroxy-4,5,6,7-tetrahydrothieno[2,3-c]pyridine-2-carboxamide] | < 50 nM
8 | Cc1ncc(C(=O)N2CCc3cc(C(=O)NO)sc3C2)c(-c2ccccc2)n1 [Compound 48, N-hydroxy-6-(2-methyl-4-phenylpyrimidine-5-carbonyl)-4,5,6,7-tetrahydrothieno[2,3-c]pyridine-2-carboxamide] | 50 to 100 nM
9 | O=C(NO)c1cc2c(s1)CN(C(=O)Nc1cccc(C(F)(F)F)c1)CC2 [Compound 54, N^2-hydroxy-N^6-[3-(trifluoromethyl)phenyl]-4,7-dihydrothieno[2,3-c]pyridine-2,6(5H)-dicarboxamide] | < 50 nM
10 | NC(=O)CSc1ccsc1C(=O)N1CCc2cc(C(=O)NO)sc2C1 [Compound 56, 6-({3-[(2-amino-2-oxoethyl)sulfanyl]-2-thienyl}carlbonyl)-N-hydroxy-4,5,6,7-tetrahydrothieno[2,3-c]pyridine-2-carboxamide] | > 1000 nM
11 | CC(C)(C)c1ccc(C(=O)N2CCc3cc(C(=O)NO)sc3C2)cc1 [Compound 64, 6-(4-tert-butylbenzoyl)-N-hydroxy-4,5,6,7-tetrahydrothieno[2,3-c]pyridine-2-carboxamide] | < 50 nM
12 | O=C(NO)c1cc2c(s1)CN(C(=O)NC1CCCCC1)CC2 [Compound 76, N^6-cyclohexyl-N^2-hydroxy-4,7-dihydrothieno[2,3-c]pyridine-2,6(5H)-dicarboxamide] | < 50 nM
13 | Cc1cccc(NC(=O)N2CCc3cc(C(=O)NO)sc3C2)c1 [Compound 80, N^2-hydroxy-N^6-(3-methylphenyl)-4,7-dihydrothieno[2,3-c]pyridine-2,6(5H)-dicarboxamide] | < 50 nM
14 | O=C(NO)c1cc2c(s1)CN(C(=O)c1cccc(O)n1)CC2 [Compound 81, N-hydroxy-6-[(6-hydroxypyridin-2-yl)carbonyl]-4,5,6,7-tetrahydrothieno[2,3-c]pyridine-2-carboxamide] | 50 to 100 nM
15 | O=C(NO)c1cc2c(s1)CN(C(=O)CSc1cccc(C(F)(F)F)c1)CC2 [Compound 89, N-hydroxy-6-({[3-(trifluoromethyl)phenyl]sulfanyl}acetyl)-4,5,6,7-tetrahydrothieno[2,3-c]pyridine-2-carboxamide] | < 50 nM
16 | O=C(NO)c1cc2c(s1)CN(C(=O)c1ccc3ncccc3c1)CC2 [Compound 95, N-hydroxy-6-(quinoline-6-carbonyl)-4,5,6,7-tetrahydrothieno[2,3-c]pyridine-2-carboxamide] | < 50 nM
17 | O=C(NO)c1cc2c(s1)CN(C(=O)c1cccc3cccnc13)CC2 [Compound 99, N-hydroxy-6-(quinoline-8-carbonyl)-4,5,6,7-tetrahydrothieno[2,3-c]pyridine-2-carboxamide] | < 50 nM
18 | COc1cc(OC)nc(C(=O)N2CCc3cc(C(=O)NO)sc3C2)n1 [Compound 100, 6-[(4,6-dimethoxypyrimidin-2-yl)carbonyl]-N-hydroxy-4,5,6,7-tetrahydrothieno[2,3-c]pyridine-2-carboxamide] | 50 to 100 nM
19 | Cc1ccc(CNC(=O)N2CCc3cc(C(=O)NO)sc3C2)cc1 [Compound 103, N2-hydroxy-N-6-(4-methylbenzyl)-4,5-dihydrothieno[2,3-c]pyridine-2,6(5H)-dicarboxamide] | < 50 nM

Now from value to compound:

Row | IC50 | Compound
20 | 50 to 100 nM | Cc1nc(C)c(CC(=O)N2CCc3cc(C(=O)NO)sc3C2)s1 [Compound 47, 6-[(2,4-dimethyl-1,3-thiazol-5-yl)acetyl]-N-hydroxy-4,5,6,7-tetrahydrothieno[2,3-c]pyridine-2-carboxamide]
21 | < 50 nM | Cc1cc(C(=O)N2CCc3cc(C(=O)NO)sc3C2)ccc1F [Compound 51, 6-(4-fluoro-3-methylbenzoyl)-N-hydroxy-4,5,6,7-tetrahydrothieno[2,3-c]pyridine-2-carboxamide]
22 | 50 to 100 nM | O=C(NO)c1cc2c(s1)CN(C(=O)Cc1cc(F)cc(F)c1)CC2 [Compound 52, 6-(2-(3,5-difluorophenyl)acetyl)-N-hydroxy-4,5,6,7-tetrahydrothieno[2,3-c]pyridine-2-carboxamide]
23 | 50 to 100 nM | Cc1noc(C)c1CC(=O)N1CCc2cc(C(=O)NO)sc2C1 [Compound 62, 6-(2-(3,5-dimethylisoxazol-4-yl)acetyl)-N-hydroxy-4,5,6,7-tetrahydrothieno[2,3-c]pyridine-2-carboxamide]
24 | < 50 nM | Cc1oc(-c2ccccc2)nc1CC(=O)N1CCc2cc(C(=O)NO)sc2C1 [Compound 65, N-hydroxy-6-[(5-methyl-2-phenyl-1,3-oxazol-4-yl)acetyl]-4,5,6,7-tetrahydrothieno[2,3-c]pyridine-2-carboxamide]
25 | < 50 nM | Cc1oc(C(C)(C)C)cc1C(=O)N1CCc2cc(C(=O)NO)sc2C1 [Compound 67, 6-(5-tert-butyl-2-methyl-3-furoyl)-N-hydroxy-4,5,6,7-tetrahydrothieno[2,3-c]pyridine-2-carboxamide]
26 | 50 to 100 nM | Cc1nc(CC(=O)N2CCc3cc(C(=O)NO)sc3C2)cs1 [Compound 75, N-hydroxy-6-(2-(2-methylthiazol-4-yl)acetyl)-4,5,6,7-tetrahydrothieno[2,3-c]pyridine-2-carboxamide]
27 | < 50 nM | Cn1nc(C(C)(C)C)cc1C(=O)N1CCc2cc(C(=O)NO)sc2C1 [Compound 88, 6-[(3-tert-butyl-1-methyl-1H-pyrazol-5-yl)carbonyl]-N-hydroxy-4,5,6,7-tetrahydrothieno[2,3-c]pyridine-2-carboxamide]
28 | < 50 nM | Cc1ccoc1C(=O)N1CCc2cc(C(=O)NO)sc2C1 [Compound 94, N-hydroxy-6-(3-methyl-2-furoyl)-4,5,6,7-tetrahydrothieno[2,3-c]pyridine-2-carboxamide]
29 | < 50 nM | Cc1ncsc1C(=O)N1CCc2cc(C(=O)NO)sc2C1 [Compound 98, N-hydroxy-6-[(4-methyl-1,3-thiazol-5-yl)carbonyl]-4,5,6,7-tetrahydrothieno[2,3-c]pyridine-2-carboxamide]
